Laboratory results taken from ChEMBL document CHEMBL4266060, “Structure-Property Relationship Studies of Influenza A Virus AM2-S31N Proton Channel Blockers” (ACS Med Chem Lett, 2018).

test system: Matrix protein 2 (Influenza A virus (A/Udorn/307/1972(H3N2))), P0DOF8 [S31N]; assay: Inhibition of Influenza A virus AM2 S31N mutant expressed in xenopus laevis frog oocytes assessed as inhibition of channel current at 100 uM after 2 mins by two-electrode voltage clamp assay relative to control; format: cell-based

Row | Compound | inhibition
1 | c1csc(-c2ccc(CNC34CC5CC(CC(C5)C3)C4)s2)c1 | 86.1%
2 | COc1ccc(-c2ccc(CNC34CC5CC(CC(O)(C5)C3)C4)s2)cn1 | 68.3%
3 | OC12CC3CC(C1)CC(NCc1ccc(-c4ccccc4)s1)(C3)C2 | 84.6%
4 | OC12CC3CC(C1)CC(NCc1ccc(Br)s1)(C3)C2 | 64.7%
5 | OC12CC3CC(C1)CC(NCc1ccc(-c4ccc(F)cc4F)s1)(C3)C2 | 74.5%
6 | Brc1ccc(CNC23CC4CC(CC(C4)C2)C3)[se]1 | 70.6%
7 | COc1ccc(-c2ccc(CNC34CC5CC(CC(O)(C5)C3)C4)s2)cc1OC | 37.6%
8 | CSc1ccccc1-c1ccc(CNC23CC4CC(CC(O)(C4)C2)C3)s1 | 73.4%
9 | OC12CC3CC(C1)CC(NCc1csc(Br)c1)(C3)C2 | 48.3%
10 | OC12CC3CC(C1)CC(NCc1ccc(-c4ccccc4Cl)s1)(C3)C2 | 78.7%
11 | OC12CC3CC(C1)CC(NCc1ccc(I)s1)(C3)C2 | 75.6%
12 | OC12CC3CC(C1)CC(NCc1cc(Br)cs1)(C3)C2 | 56.6%
13 | Brc1ccc(CNC23CCC4CC(CC(C4)C2)C3)s1 | 72.6%
14 | COc1ncc(-c2ccc(CNC34CC5CC(CC(O)(C5)C3)C4)s2)cn1 | 4.4%
15 | COC(=O)c1ccc(-c2ccc(CNC34CC5CC(CC(O)(C5)C3)C4)s2)cc1 | 64.3%
16 | Ic1ccc(CNC23CC4CC(CC(C4)C2)C3)s1 | 78.5%
17 | OC12CC3CC(C1)CC(NCc1cnc(Br)s1)(C3)C2 | 33.5%
18 | OC12CC3CC(C1)CC(NCc1nc(Br)cs1)(C3)C2 | 36%
